Assay results as given in PMC6918900, “Concentration-Dependent Activity of Hydromethylthionine on Cognitive Decline and Brain Atrophy in Mild to Moderate Alzheimer’s Disease” (Journal of Alzheimer's Disease, 2019).
Like-named read-outs stand apart in the source and are kept apart here.

Assays:
[1] = Population PK: parent MT steady state plasma Cmax,ss in Phase III patients; format: in vivo, human; conditions: for % high Cmax (Cmax,ss > 0.373 ng/ml): LMTM 8 mg/day; for Cmax: human, plasma, oral, parent MT
Source text: (§1) Pharmacokinetic analyses were undertaken using plasma concentration data from patients who participated in either of two completed Phase III trials which have been described previously [[35, 36]]. In brief, the first (TRx-237-015) was a 15-month study which recruited 890 patients from 115 sites across 16 countries in EU, North America, Asia, and Russia. Patients had to be <90 years of age and have a diagnosis of mild to moderate probable AD according to National Institute of Aging (NIA) and Alzheimer’s Association (AA) criteria and a Mini-Mental State Examination (MMSE) score of 14–26 inclusive and with a Clinical Dementia Rating (CDR) total score of 1 or 2. The second study (TRx-237-005) was an 18-month trial which recruited 800 patients from 108 sites in Canada, United States, Australia, and Europe. Patients had to meet the same age and diagnosis criteria, except that they were required to have a MMSE score of 20–26 inclusive and a CDR total score of 0.5 or 1.0. Concomitant use of AChEIs or memantine (or both) was permitted in both studies provided this was at a stable dose for at least 18 weeks before randomization. Concomitant use of serotonergic antidepressant, antipsychotic (except clozapine or olanzapine), and sedative medications was also permitted at stable doses where clinically feasible. Patients were randomly assigned to receive LMTM at doses of 250, 150, or 8 mg/day in Study 015 and doses of 200 or 8 mg/day in Study TRx-237-005. Randomization in both studies was stratified according to geographical region, use of AD-labelled co-medications, and severity of AD. The co-primary outcomes in both studies were the Alzheimer’s Disease Assessment Scale–cognitive subscale, 11-item version (ADAS-cog11) and the Alzheimer’s Disease Co-operative Study–Activities of Daily Living, 23-item version (ADCS-ADL23) scale measured at baseline and every 3 months. MRI scans were undertaken at screening or baseline and at 3-month intervals. MRI acquisition protocol and parameters were standardized across sites and all data were centrally collected, quality-controlled, and analyzed blind by an imaging core lab (Bioclinica). Volumetric data were used to measure changes in whole brain volume (WBV, which provides a measure of the volume of grey and white matter), lateral ventricular volume (LVV), and other regional volumes including hippocampus, although only the global measures are reported in the present study. Baseline volumes were assessed using FreeSurfer 5.3, and volume change was assessed using Boundary Shift Integral and Tensor Based Morphometry for regional structures. Full details and study protocols for these two trials are available [[35, 36]].
Blood samples for assessment of parent MT, N-desmethyl MT, and total MT (sum of parent MT and a labile LMT conjugate) were collected from each patient on the first treatment visit (two samples: pre-dose and approximately 3.5 h after the dose) and at each subsequent on-treatment visit. The protocol specified that PK plasma sampling was to be conducted only at sites with adequate facilities (i.e., a refrigerated centrifuge and adequate capability to reliably freeze samples). Blinded analyses were conducted at the University of Aberdeen GLP Test Facility. MT levels in plasma were measured using liquid chromatography-tandem mass spectrometry. […] The method was validated for use in the Phase III studies over the range 0.2 to 10 ng/ml. Extrapolated MT concentrations were available below the lower limit of quantitation (but above the lower limit of detection) in approximately 35% of the Day 1 patients randomized to the 8 mg/day dose. The method was validated for long-term sample storage of 162 days at –20°C. […] Plasma samples from a total of 1,296 patients from the two Phase III studies in AD were available for analysis and, of these, 1,162 also had baseline and post-baseline efficacy outcome data available for analysis. […]

[2] = system: patients with mild to moderate Alzheimer's disease; assay: ADAS-cog11 change over 65 weeks by plasma exposure; format: in vivo, human; conditions: for ADAS-cog Difference ± SEM: split by 8 mg/day Cmax,ss median
Source text: as §1
The exposure-response analyses were conducted independently by ICPD and verified by TauRx. As a first step in the analysis, the concentration-response data were reviewed for ADAS-cog11 decline at week 65 in all patients receiving LMTM at a dose of 8 mg/day using a sigmoid Emax (maximum response) model not requiring assumptions regarding exposure subgroups. The model was fitted using covariates geographical region, CDR at baseline, co-medication status, and baseline ADAS-cog11. A 90% bootstrap confidence interval was also calculated.
Having shown a concentration-dependent response for cognitive decline, a mixed-effects model for repeated measures analysis was used to characterize further the relationship between each efficacy endpoint and parent MT plasma exposure (steady state Cmax,ss) according to the following formula: pharmacological activity∼plasma-level×visit+co-medication-status×visit+co-medication-status×plasma-level+geographical-region+CDR-at-baseline+baseline-score×visit
The following terms were categorical variables in the models: plasma exposure (Cmax,ss) (7 levels), visit (5 levels), co-medication status with AD drugs (2 levels), geographical region (2 levels), and CDR at baseline (3 levels). […]

Route of clearance = conditions: in vivo
[3] = system: tau transgenic mouse model for AD; set-up: method as in PMID 32091331; conditions: 5 and 15 mg/kg/day; cited from earlier work

## CN(C)c1ccc2c(c1)Sc1cc(N(C)C)ccc1N2 [LMTM, leuco-methylthioninium bis(hydromethanesulphonate)]
[1]; 8 mg/day
  patients with subthreshold plasma levels (below 0.2 ng/ml) after first dose on Day 1: 35%
[1]; 8 mg/day dose
  steady state plasma levels: 0.3 to 0.8 ng/mL
[1]; 8 mg/day, creatinine clearance 20 ml/min/1.73 m^2
  probability of achieving the Cmax,ss threshold of 0.373 ng/ml: ~100%
[1]; 8 mg/day, creatinine clearance 106 ml/min/1.73 m^2
  probability of achieving the Cmax,ss threshold of 0.373 ng/ml: essentially zero
[1]; patients not using anti-inflammatory and antirheumatic products, non-steroids
  % high Cmax (Cmax,ss > 0.373 ng/ml): 67.3%
[1]; patients not using antihypertensive/antiarrhythmic drugs
  % high Cmax (Cmax,ss > 0.373 ng/ml): 60.6%
[1]; patients not using antithrombotic agents
  % high Cmax (Cmax,ss > 0.373 ng/ml): 62.6%
[1]; patients not using blood glucose lowering drugs, excluding insulins
  % high Cmax (Cmax,ss > 0.373 ng/ml): 65.6%
[1]; patients not using drugs for peptic ulcer and gastro-esophageal reflux disease
  % high Cmax (Cmax,ss > 0.373 ng/ml): 65.3%
[1]; patients not using lipid modifying agents
  % high Cmax (Cmax,ss > 0.373 ng/ml): 66.0%
[1]; patients not using thyroid preparations
  % high Cmax (Cmax,ss > 0.373 ng/ml): 64.3%
[1]; patients using anti-inflammatory and antirheumatic products, non-steroids
  % high Cmax (Cmax,ss > 0.373 ng/ml): 59.5%
[1]; patients using antithrombotic agents
  % high Cmax (Cmax,ss > 0.373 ng/ml): 70.3%
[1]; patients using blood glucose lowering drugs, excluding insulins
  % high Cmax (Cmax,ss > 0.373 ng/ml): 66.2%
[1]; patients using drugs for peptic ulcer and gastro-esophageal reflux disease
  % high Cmax (Cmax,ss > 0.373 ng/ml): 66.9%
[1]; patients using lipid modifying agents
  % high Cmax (Cmax,ss > 0.373 ng/ml): 65.2%
[1]; patients using thyroid preparations
  % high Cmax (Cmax,ss > 0.373 ng/ml): 74.1%
[1]; expected at 16 mg/day
  estimated mean plasma concentration: 0.88 ± 0.18 ng/mL
[1]; high doses (150–250 mg/day)
  plasma concentrations: 4 to 21 ng/mL
[1]; 8 mg/day, 8 mg/day – Group 1, read-out: Cmax,ss Mean (SD)
  Cmax: 0.334 ng/mL
[1]; 8 mg/day, 8 mg/day – Group 1, read-out: Cmax,ss Range
  Cmax: 0.257 to 0.373 ng/mL
[1]; 8 mg/day, 8 mg/day – Group 2, read-out: Cmax,ss Range
  Cmax: 0.373 to 0.414 ng/mL
[1]; 8 mg/day, 8 mg/day – Group 3, read-out: Cmax,ss Mean (SD)
  Cmax: 0.449 ng/mL
[1]; 8 mg/day, 8 mg/day – Group 3, read-out: Cmax,ss Range
  Cmax: 0.415 to 0.478 ng/mL
[1]; 8 mg/day, 8 mg/day – Group 4, read-out: Cmax,ss Mean (SD)
  Cmax: 0.565 ng/mL
[1]; 8 mg/day, 8 mg/day – Group 4, read-out: Cmax,ss Range
  Cmax: 0.479 to 0.812 ng/mL
[1]; 150 mg/day, 150 mg/day, read-out: Cmax,ss Mean (SD)
  Cmax: 7.82 ng/mL
[1]; 150 mg/day, 150 mg/day, read-out: Cmax,ss Range
  Cmax: 5.1 to 18.6 ng/mL
[1]; 200 mg/day, 200 mg/day, read-out: Cmax,ss Mean (SD)
  Cmax: 10.1 ng/mL
[1]; 200 mg/day, 200 mg/day, read-out: Cmax,ss Range
  Cmax: 6.56 to 21.3 ng/mL
[1]; 250 mg/day, 250 mg/day, read-out: Cmax,ss Mean (SD)
  Cmax: 12.6 ng/mL
[1]; 250 mg/day, 250 mg/day, read-out: Cmax,ss Range
  Cmax: 8.83 to 21.2 ng/mL
[1]; 8 mg/day – Group 2, read-out: Cmax,ss Mean (SD)
  Cmax: 0.393 ng/mL
[2]; LMTM 8 mg/day as add-on therapy, Cmax,ss above vs below 0.373 ng/ml
  ADAS-cog11 Difference±SEM in change from baseline: –3.52±0.78
[2]; LMTM 8 mg/day as monotherapy, Cmax,ss above vs below 0.373 ng/ml
  ADAS-cog11 Difference±SEM in change from baseline: –2.60±1.16
[2]; LMTM 8 mg/day as monotherapy
  ADAS-cog Difference ± SEM: -2.75 ± 1.09
[2]; LMTM 8 mg/day, low Cmax add-on versus high Cmax monotherapy
  ADAS-cog11 Difference±SEM in change from baseline: –7.53±1.22
[2]; all patients, high vs low exposure split by Cmax,ss 0.373 ng/ml, 65 weeks
  ADAS-cog11 Difference±SEM in change from baseline: –2.66±0.69
[2]; all patients
  ADAS-cog Difference ± SEM: -1.91 ± 0.59
[2]; patients receiving LMTM 8 mg/day, split by Cmax,ss 0.373 ng/ml, 65 weeks
  ADAS-cog11 Difference±SEM in change from baseline: –3.41±0.76
Route of clearance
  share of clearance via the kidneys: 70%
[3]
  Complex IV activity in brain mitochondria: increase Complex IV activity in brain mitochondria
  acetylcholine levels in hippocampus: increase acetylcholine levels in hippocampus
  choline acetyltransferase activity in basal forebrain: restore choline acetyltransferase activity in basal forebrain
  glutamate release from brain synaptosomes: reverse impairment in glutamate release from brain synaptosomes
